From patent US8232407B2, “Nitrogenous heterocyclic compounds with insecticidal activity, and the preparation and use thereof” (East China University of Science and Technology, priority 2008, dated 2012)

Key:
Type in all cases: in vivo
Plutella xylostella = test: Insecticidal activities to diamondback moth, feeding dipped leaves; settings: for Plutella xylostella Mortality (%) 500 ppm: in vivo
Summary of the method: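 Mortality was scored 24 h after larvae of Plutella xylostella (10 per treatment, 3 repeats) fed on cabbage leaves immersed 3 s in test solution and dried at room temperature. It was computed relative to survivors in a water-treated control.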

[1] = system: Pseudaletia separate Walker; test: Insecticidal activities to armyworm, leaf dipping and feeding
Summary of the method: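 Armyworms (10 per tumbler, 3 replicates) ate fresh maize leaves that had been immersed for 3 seconds in compound solutions of 1.57-500 ppm in acetone, or in aqueous acetone for controls. Kills were scored at 24 h, and mortality was calculated relative to survivors in the control group.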

Aphis craccivoral = test: Insecticidal activities to aphids, immersion method; settings: for Aphis craccivoral Mortality (%) 500 ppm: in vivo
Summary of the method: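 Immersion assay: compound diluted from 10 g/L DMF stock to 500 ppm in 0.2 mL/L Triton X-100, sprout-feeding wingless adults dipped 5 s. Kept at 23° C, three repeats; 24 h mortality calculated relative to surviving Triton-treated controls.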

Nilaparvata lugens = test: Insecticidal activities to plant hopper, spraying method; settings: for Nilaparvata lugens Mortality (%) 500 ppm: in vivo
Summary of the method: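 Spray test: acetone solutions of 500 down to 0.79 ppm, 2 ml per tumbler holding 10 planthoppers introduced 6 h earlier, triplicate, aqueous acetone as control. Mortality at 24 h calculated from survivors relative to control.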

Compound | Plutella xylostella Mortality (%) 500 ppm (Plutella xylostella) [%] | Pseudaletia separate Walker Mortality (%) 500 ppm ([1]; in vivo) [%] | Aphis craccivoral Mortality (%) 500 ppm (Aphis craccivoral) [%] | Nilaparvata lugens Mortality (%) 500 ppm (Nilaparvata lugens) [%] | further results
CC(c1ccc(Cl)nc1)N1CCN=C1C(=Cc1ccc([N+](=O)[O-])o1)[N+](=O)[O-] (racemic) [Compound 124] | 100 | 100 | 100 | 100 | 
O=[N+]([O-])C(=Cc1sc(Br)cc1Br)C1=NCCN1Cc1ccc(Cl)nc1 [Compound 26] | 100 | 100 | 100 | 100 | 
CC(c1ccc(Cl)nc1)N1CCN=C1C(=Cc1ccco1)[N+](=O)[O-] (racemic) [Compound 121] | 56 | 100 | 100 | 100 | 
N#CC(=Cc1sc(Cl)cc1Cl)C1=NCCN1Cc1ccc(Cl)nc1 [Compound 150] |  |  |  |  | Plutella xylostella Mortality (%) (Plutella xylostella; 500 ppm, feeding dipped cabbage leaves, counted after 24 hours): 100%; Pseudaletia separate Walker Mortality (%) ([1]; 500 ppm, maize leaf dipping and feeding, counted after 24 hours): 100%; Aphis craccivoral Mortality (%) (Aphis craccivoral; 500 ppm, immersion method): 95%; Nilaparvata lugens Mortality (%) (Nilaparvata lugens; 500 ppm, spraying method, counted after 24 hours): 100%
CC(=C(C1=NCCN1C(C)c1ccc(Cl)nc1)[N+](=O)[O-])c1ccco1 (racemic) [Compound 133] | 68 | 90 | 48 | 50 | 
O=[N+]([O-])C(=Cc1cc(Br)c(Br)o1)C1=NCCCN1Cc1ccc(Cl)nc1 [Compound 55] | 100 | 100 | 98 | 100 | 
C[N+]1=C(C(=Cc2cc(Cl)cs2)[N+](=O)[O-])N(Cc2ccc(Cl)nc2)CC1.[Cl-] [Compound 264] | 100 | 100 | 100 | 100 | 
O=[N+]([O-])C(=Cc1ccc(Br)s1)C1=NCCN1Cc1cnc(Cl)s1 [Compound 87] | 100 | 100 | 100 | 100 | 
O=[N+]([O-])C(=Cc1cnc(Cl)s1)C1=NCCN1Cc1ccc(Cl)nc1 [Compound 35] | 100 | 100 | 100 | 100 | 
O=[N+]([O-])C(=Cc1cc(Br)c(Br)s1)C1=NCCN1Cc1ccc(Cl)nc1 [Compound 25] | 100 | 100 | 100 | 100 | 
O=[N+]([O-])C(=Cc1cc(Cl)co1)C1=NCCN1Cc1cnc(Cl)s1 [Compound 73] | 100 | 100 | 100 | 100 | 
O=[N+]([O-])C(=Cc1cc(Br)cs1)C1=NCCN1Cc1ccc(Cl)nc1 [Compound 22] | 100 | 100 | 100 | 100 | 
N#CC(=Cc1ccsc1)C1=NCCN1Cc1ccc(Cl)nc1 [Compound 147] | 100 | 100 | 100 | 100 | 
O=[N+]([O-])/C(=C/c1ccoc1)C1=NCCN1Cc1ccc(Cl)nc1 [Compound 2, 2-chloro-5-((2-(2-(furan-3-yl)-1-nitrovinyl)-4,5-dihydro-imidazol-1-yl)-methyl) pyridine] |  |  |  |  | mortality at 500 ppm (Plutella xylostella; Plutella xylostella, 500 ppm, feeding dipped leaves, counted after 24 hours, read-out: Plutella xylostella Mortality (%) 500 ppm): 100%; Pseudaletia separate Walker Mortality (%) 500 ppm ([1]; 500 ppm, leaf dipping and feeding, counted after 24 hours): 100%; mortality at 500 ppm (Aphis craccivoral; Aphis, 500 ppm, immersion method, read-out: Aphis craccivoral Mortality (%) 500 ppm): 100%; mortality at 500 ppm (Nilaparvata lugens; Nilaparvata lugens, 500 ppm, spraying method, counted after 24 hours, read-out: Nilaparvata lugens Mortality (%) 500 ppm): 100%
O=[N+]([O-])C(=Cc1ccccc1)C1=NCCN1Cc1ccc(Cl)nc1 [Compound 44] | 100 | 97 | 67 | 92 | 
CC(c1ccc(Cl)nc1)N1CCN=C1C(=Cc1ccc[nH]1)[N+](=O)[O-] (racemic) [Compound 131] | 63 | 100 | 100 | 100 | 
O=[N+]([O-])C(=Cc1ccc(Cl)s1)C1=NCCCN1Cc1ccc(Cl)nc1 [Compound 64] | 100 | 100 | 100 | 100 | 
O=[N+]([O-])C(=Cc1cccs1)C1=NCCN1Cc1cnc(Cl)s1 [Compound 83] | 100 | 100 | 100 | 100 | 
C[N+]1=C(C(=Cc2ccc[nH]2)[N+](=O)[O-])N(Cc2ccc(Cl)nc2)CC1.[Cl-] [Compound 274] | 100 | 100 | 100 | 100 | 
O=[N+]([O-])C(=Cc1cccnc1)C1=NCCN1Cc1ccc(Cl)nc1 [Compound 38] | 87 | 95 | 97 | 100 | 
O=[N+]([O-])C(=Cc1cc(Cl)co1)C1=NCCN1Cc1ccc(Cl)nc1 [Compound 6] | 100 | 100 | 100 | 100 | 
O=[N+]([O-])C(=Cc1cc(Br)co1)C1=NCCN1Cc1ccccc1 [Compound 107] | 85 | 96 | 82 | 92 | 
O=[N+]([O-])C(=Cc1ccc([N+](=O)[O-])s1)C1=NCCN1Cc1ccc(Cl)nc1 [Compound 18] | 100 | 100 | 100 | 100 | 
O=[N+]([O-])C(=Cc1ccc(CO)o1)C1=NCCN1CC1CCOC1 (stereo not shown) [Compound 102] | 97 | 89 | 75 | 89 | 
CCc1ccc(C=C(C2=NCCN2Cc2ccc(Cl)nc2)[N+](=O)[O-])o1 [Compound 14] | 100 | 100 | 100 | 100 | 
O=[N+]([O-])C(=Cc1cc(Cl)c(Cl)o1)C1=NCCN1Cc1ccccc1 [Compound 108] | 24 | 24 | 87 | 95 | 
CC(=C(C1=NCCN1Cc1ccc(Cl)nc1)[N+](=O)[O-])c1ccc(C)o1 [Compound 114] | 30 | 10 | 92 | 100 | 
N#CC(=Cc1ccc([N+](=O)[O-])o1)C1=NCCN1Cc1ccc(Cl)nc1 [Compound 142] | 100 | 100 | 100 | 100 | 
